Measured values as given in patent publication US11352374B2 (University of Alaska Anchorage, priority 2015, dated 2022).

Assays:
[1] = tested on: fibroblast tumor cells (Hs 895.T) and normal fibroblast cells (Hs 895.Sk)
Procedure: Cells were seeded at the density of 3×10^3 cells per well in 96-well plate with different concentrations of CORCBs in DMEM media without FBS, and incubated at 37° C. with 5% CO2 for 2 days.

physchem = test: physchem
Procedure: The kinetics of compound decomposition was followed by observing the ratio of the amount of free amine group to the original compound using ^1H NMR. For instance, Hexamethylenetetramine carboxyborane (CORCB-1) in D2O at the concentration of 12 mg/mL was incubated at 37° C. in the standard NMR tube. ^1H NMR spectra were obtained at different time points to study the kinetics of product formation. […] The ratio of integrated peaks were used for determining the percent of each species present and plotted as a function of time to show the kinetics of auto-decomposition.
^1H, ^11B, and ^13C NMR spectra were recorded at different time points to study the kinetics as well as to observe transformation of CORCB-1 into the products.
In order to determine whether CO is produced in physiological condition, CORCB acid forms were dissolved in aqueous solution at neutral pH. The solution was then subjected to incubation at 37° C. for extended period of time. For studies using NMR, CORCBs were dissolved in D2O. The kinetics of CORCB molecules breaking down to produce CO is determined by taking ^1H NMR spectra at various time points (FIG. 3).
CORCB sodium and ammonium salts were also tested for decomposition by using ^1H NMR spectroscopy. Samples were set up as in Example 1 and rate of decomposition measured (FIG. 4).

[2] = tested on: LPS-induced TNF-α production in RAW264.7 cells; test: LPS-induced TNF-α production with CORCB plus H2O2; type: cell-based, mouse
Procedure: RAW264.7 cells at the density of 2×10^4 cells per well in 96-well plate were treated with varying concentrations of CORCB plus different concentrations of H2O2.

[3] = tested on: normal human skin fibroblast cells (Hs 895.Sk); conditions: CORCB-1 (3 mM) + imatinib 20 or 40 μM, day 4 and 6
Procedure: This was tested by using a chemotherapy drug, imatinib, in normal human skin fibroblast cells (Hs 895.Sk). The cultures were treated with 20 μM and 40 μM concentration of imatinib as controls to see their toxicity. Samples with mixtures of CORCB-1 and imatinib were also incubated and cell viability was determined on 2, 4, and 6 days. Media was exchanged every 2 days with fresh reagents.

[4] = CO released in the presence of Fenton reagent (hydroxyl radical), CO meter; type: physicochemical; conditions: per 5 minutes
Procedure: (§1) A test to confirm that CO is one of the decomposition products from CORCBs is done by utilizing commercially available CO meter. Four mole of the compounds at the concentrations of 6-12 mg/mL in aqueous solution was incubated at 37° C. in a sealed vessel with 50 mL gas space. CO meter was used to read the concentration of liberated CO gas from the solution. Measurement by CO meter in ppm, after converting to the micromole amount, was used for calculating the percent CO released based on the original amount of compound.
All amine carboxyboranes express a faster CO release rate when incubated with the reactive oxygen species. The two tested are the common ROS formed naturally in the cells—a non-radical hydrogen peroxide (H2O2) and Fenton reagent which is a more reactive hydroxyl radical (.OH) formed from Fe^2+ and H2O2. Four mole of CORCB compounds were mixed in an aqueous solution with ROS and incubated in a sealed vessel. At respective times, the head space air was injected into the meter to read the amount of CO produced. For analysis by NMR spectroscopy, the reaction mixture was prepared in NMR tube in D2O solvent and incubated for the amount of time indicated. While some CORCBs have increased amount of CO produced when treated with 3 times equivalents of H2O2, CORCB-1 produces similar or less amount of CO. In every sample, either acid or salt form, the hydroxyl radical extracts the amount of CO to a much higher magnitude within a very short amount of time.

[5] = CO released on auto-decomposition in water at 37° C., head space measured with CO meter; type: physicochemical
Procedure: as §1
CO liberated from the molecules and coming out to the head space are detected and quantified by using CO meter.

[6] = Anti-tumor effect of CORCB-1 in the presence of ROS, normal cells; type: cell-based, human; conditions: human, Hs 895.Sk normal fibroblast cells; 1 mM CORCB-1 + 0.2 mM H2O2, 2 days; read-out: % viable normal cells at 2 days
Procedure: (§2) To further test the anti-tumor effect of CORCBs in the presence of ROS, fibroblast tumor cells (Hs 895.T) and normal fibroblast cells (Hs 895.Sk) were incubated with 1 mM of CORCB-1 and 0.2 mM of H2O2 mixed in the DMEM media without FBS. Media was exchanged every 2 days for longer incubation periods such as 4 and 6 days. […] Both tumor and normal cells are close to 100% viable at 2 days, but for longer treatment periods, tumor cells growth rate declines and normal cell growth remains steady. […] Normal cells are preserved under stressed condition while tumor cells are destroyed.

[7] = tested on: normal fibroblast cells (Hs 895.Sk); test: as above; type: cell-based, human; conditions: 1 mM CORCB-1 + 0.2 mM H2O2, 6 days
Procedure: as §2

[8] = tested on: LPS-induced TNF-α production in mouse macrophage cells (RAW264.7); test: Inhibition of LPS-induced TNF-α production (ELISA); type: cell-based
Procedure: To test the anti-inflammatory effect of CORCBs, mouse macrophage cells (RAW264.7) were used. 2×10^4 cells per well was seeded in 96-well plate with different concentrations of CORCBs. Cells were incubated in DMEM with 10% FBS at 37° C. and 5% CO2 for 24 hours. LPS (100 ng/mL) was then added and incubated for 4 additional hours. The media containing secreted inflammatory cytokines were collected and these cells were subjected to cell viability test to check their viability. TNF-α concentration in each sample was measured by ELISA assay.

[9] = Decomposition (amine release) in the presence of H2O2 monitored by 1H NMR; type: physicochemical
Procedure: (§3) The two tested are the common ROS formed naturally in the cells—a non-radical hydrogen peroxide (H2O2) and Fenton reagent which is a more reactive hydroxyl radical (.OH) formed from Fe^2+ and H2O2. Four mole of CORCB compounds were mixed in an aqueous solution with ROS and incubated in a sealed vessel. At respective times, the head space air was injected into the meter to read the amount of CO produced. For analysis by NMR spectroscopy, the reaction mixture was prepared in NMR tube in D2O solvent and incubated for the amount of time indicated.
The reaction with H2O2 is slow-acting, therefore, NMR spectroscopy can be used for monitoring the rate.

[10] = CO released in the presence of H2O2, CO meter; type: physicochemical
Procedure: as §1, §3

horse Mb = test: Myoglobin (Mb) assay: deoxy-Mb to carboxy-Mb; type: biochemical; conditions: in one hour; 69 μM deoxy-Mb, 50× excess compound, 37° C.; compound per FIG. 2 legend
Procedure: Since there was no literature that reported the use of CO meter with CO releasing molecules, to further confirm that CORCBs release CO, Mb assay was performed using the standard procedure used with other CO releasing compounds. In brief, 1 mM horse Mb in 50 mM sodium phosphate buffer (pH 7.4) was deoxygenated using 3 equivalents of sodium dithionite. Excess dithionite was removed by desalting column. Deoxy-Mb at the concentration of 69 μM was mixed with CORM (50× excess) and incubated in 37° C. Visible spectra in the range of 550-600 nm were recorded at every 10 minutes. Overlaid spectra of these samples show a gradual transformation of deoxy-Mb to carboxy-Mb (FIG. 2). The percent CO released calculated was approximately 1% in one hour.

[11] = CO generated at different pHs, CO meter; type: physicochemical; conditions: compound per FIG. 10 legend
Procedure: FIG. 10 graphically depicts the percent CO generated by CORCB-1 in different pHs monitored by the CO meter. CORCB was dissolved in water with adjusted pH before incubation in 37° C. After 12 hours, CO gas in the head space was analyzed using a CO meter.
CO releasing property of CORCBs is not limited only to the neutral environment. It works in any pH ranging from 2 to 12 as evident in FIG. 10. […] CO is released at the highest amount in the acidic condition of pH 2 with more than 25% in 12 hours.

[12] = 24 hours, 1.5 equivalents H2O2, 37° C.

With `O=C(O)B[N+]12CN3CN(CN(C3)C1)C2` [CORCB-1, Hexamethylenetetramine carboxyborane] the “selectivity of growth stimulation (in words)” value ([1]; Hs 895.Sk versus Hs 895.T, 48 hours) was “more selective towards the normal fibroblast cells”, the “viable cells compared with untreated cells” value ([1]; human, 48 h) was roughly 180% and the half-life at 12 mg/mL (physchem) was 84 h. For the same compound, the “Decomposition rate at 24 hours, 1H NMR, Autodecomposition” value (physchem; 24 hours, 37° C.) was 19%, the rate of auto-decomposition (physchem; as stated in Example 10) was “around 20 % per day” and the rate of decomposition (physchem; in the beginning, acid form, D2O, 37° C.) was 0.85 % per hour. For the same compound, the “amount of TNF-α secreted, together with H2O2” value [2] was “about 25%”, the “survival rate, mixture of imatinib and CORCB-1” value [3] was “around 70%” and the “Rate of % CO released by CORCBs, With Fenton Reagent” value [4] was 60.90 ± 0.52%. The CO release rate ([5]; 37° C.) was “approximately 1 % per hour”, the “% CO liberated at 24 hours by CO meter” value ([5]; 24 hours, 37° C.) was 23% and the “CO release rate at 24 hours, CO meter, Autodecomposition” value ([5]; 24 hours, 37° C.) was 24%. The “Rate of % CO released by CORCBs, Autodecomposition” value ([5]; per 24 hour) was 23.47 ± 0.38%, the viability at 2 days, 1 mM [6] was roughly 100% and the “normal cell growth, 6th day” value [7] was 89%. For the same compound, the “amount of TNF-α secreted, compound alone” value ([8]; 1 mM, LPS only = 100%) was “about 80%”, the “effect on LPS-induced TNF-α production (in words)” value ([8]; 24 hours compound, then LPS 100 ng/mL 4 hours) was “inhibits the production of TNF-α” and the “% decomposition / free amine released by 1H NMR with H2O2” value ([9]; 1.5 equivalents H2O2, 24 hours) was 51%. The “Decomposition rate at 24 hours, 1H NMR, With 1.5x H2O2” value [9, 12] was 50.90%, the “% CO produced by CO meter with H2O2” value ([10]; 1.5 equivalents H2O2, 24 hours) was 12% and the “CO release rate at 24 hours, CO meter, With 1.5x H2O2” value [10, 12] was 12.10%. For the same compound, the “Rate of % CO released by CORCBs, With H2O2” value ([10]; per 24 hour, H2O2 equivalents not given) was 20.86 ± 0.82%, the “percent CO released (Mb assay)” value (horse Mb) was “approximately 1%” and the “CO released at pH 2” value ([11]; pH 2, 12 hours, 37° C.) was “more than 25%”. For the same compound, the “CO release rate as a function of pH (in words)” value ([11]; pH 2 to 12, 12 hours) was “the lowest in pH 7” and the “cell viability after the TNF-α assay (in words)” value (RAW264.7 cells) was “all cells were still healthy”.
